# Reference: patent publication US20060178374A1, “Aminoheteroaryl compounds as protein kinase inhibitors” (AGOURON PHARMACEUTICALS, INC., priority 2004, published 2006)
# Target: HGFR (c-Met) (Homo sapiens, UniProt P08581)
# Test: HGFR Continuous-Coupled Spectrophotometric Assay
# Type: biochemical
# Settings: HGFR enzyme 50 nM, Met-2 peptide substrate, 37° C.
# Summary of the method: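 Human HGFR (50 nM final) phosphorylates the Met-2 activation-loop peptide, with ADP formation coupled through PK/LDH to NADH consumption, read as the A340 decrease over 10 min at 37 °C. Buffer was HEPES pH 7.5 with MgCl2, DTT, PEP and ATP.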
# Chain of HGFR (c-Met) (P08581 974-1390): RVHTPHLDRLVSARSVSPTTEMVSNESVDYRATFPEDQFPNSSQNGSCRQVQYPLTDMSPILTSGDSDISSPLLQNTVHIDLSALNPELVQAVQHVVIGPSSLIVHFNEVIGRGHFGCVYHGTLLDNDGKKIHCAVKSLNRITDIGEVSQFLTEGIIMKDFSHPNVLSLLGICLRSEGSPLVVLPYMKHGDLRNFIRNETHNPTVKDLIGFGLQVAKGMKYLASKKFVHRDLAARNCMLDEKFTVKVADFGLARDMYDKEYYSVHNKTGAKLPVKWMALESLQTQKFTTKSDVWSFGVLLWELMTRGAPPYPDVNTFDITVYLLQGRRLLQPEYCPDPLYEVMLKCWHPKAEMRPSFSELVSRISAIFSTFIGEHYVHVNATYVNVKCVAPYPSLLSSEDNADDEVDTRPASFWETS
row,SMILES,Ki [µM]
1,"CC(Oc1cc(-c2ccc(C(=O)N3CCNCC3)cc2)cnc1N)c1c(Cl)ccc(O)c1Cl (stereo not shown) [Example 79, (4-{6-Amino-5-[1-(2,6-dichloro-3-hydroxy-phenyl)-ethoxy]-pyridin-3-yl}-phenyl)-piperazin-1-yl-methanone]",0.071
2,"COc1ccc(Cl)c(C(C)Oc2cc(-c3ccc(C(=O)N4CCNCC4)cc3)cnc2N)c1Cl (stereo not shown) [Example 80, (4-{6-Amino-5-[1-(2,6-dichloro-3-methoxy-phenyl)-ethoxy]-pyridin-3-yl}-phenyl)-piperazin-1-yl-methanone]",0.006
3,"CC(Oc1cc(C(N)=O)cnc1N)c1c(Cl)ccc(F)c1Cl (stereo not shown) [Example 81, 6-Amino-5-[1-(2,6-dichloro-3-fluoro-phenyl)-ethoxy]-nicotinamide]",1
4,"Cc1ccc(Cl)c(C(C)Oc2cc(-c3ccc(C(=O)N4CCC(N5CCCC5)CC4)cc3)cnc2N)c1F (stereo not shown) [Example 82, (4-{6-Amino-5-[1-(6-chloro-2-fluoro-3-methyl-phenyl)-ethoxy]-pyridin-3-yl}-phenyl)-(4-pyrrolidin-1-yl-piperidin-1-yl)-methanone]",0.41
5,"CC(Oc1cc(-c2ccc(C(=O)N3CCC(N4CCCC4)CC3)cc2)cnc1N)c1cccc(C(=O)O)c1 (stereo not shown) [Example 84, 3-(1-{2-Amino-5-[4-(4-pyrrolidin-1-yl-piperidine-1-carbonyl)-phenyl]-pyridin-3-yloxy}-ethyl)-benzoic acid]",5.48
6,"Cc1cn(-c2cnc(N)c(OC(C)c3c(Cl)ccc(F)c3Cl)c2)cn1 (stereo not shown) [Example 85, 3-[1-(2,6-Dichloro-3-fluoro-phenyl)-ethoxy]-5-(4-methyl-imidazol-1-yl)-pyridin-2-ylamine]",0.78
7,"COC(=O)c1cn(-c2cnc(N)c(OC(C)c3c(Cl)ccc(F)c3Cl)c2)cn1 (stereo not shown) [Example 86, 1-{6-Amino-5-[1-(2,6-dichloro-3-fluoro-phenyl)-ethoxy]-pyridin-3-yl}-imidazole-4-carboxylic acid methyl ester]",1.81
8,"CC(Oc1cc(N2CCCC2=O)cnc1N)c1c(Cl)ccc(F)c1Cl (stereo not shown) [Example 90, N-{6-Amino-5-[1-(2,6-dichloro-3-fluoro-phenyl)-ethoxy]-pyridin-3-yl}-pyrrolidin-2-one]",0.91
9,"COc1ccc(C(=O)Nc2cnc(N)c(OC(C)c3c(Cl)ccc(F)c3Cl)c2)cc1 (stereo not shown) [Example 91, N-{6-Amino-5-[1-(2,6-dichloro-3-fluoro-phenyl)-ethoxy]-pyridin-3-yl}4-methoxy-benzamide]",1.32
10,"COc1cc(C(=O)Nc2cnc(N)c(OC(C)c3c(Cl)ccc(F)c3Cl)c2)ccn1 (stereo not shown) [Example 92, N-{6-Amino-5-[1-(2,6-dichloro-3-fluoro-phenyl)-ethoxy]-pyridin-3-yl}-2-methoxy-isonicotinamide]",1.69
11,"CC(Oc1cc(NC(=O)c2cnccn2)cnc1N)c1c(Cl)ccc(F)c1Cl (stereo not shown) [Example 93, Pyrazine-2-carboxylic acid {6-amino-5-[1-(2,6-dichloro-3-fluoro-phenyl)-ethoxy]-pyridin-3-yl}-amide]",1.47
12,"CC(Oc1nc(-c2ccccc2NS(C)(=O)=O)cnc1N)c1c(Cl)ccc(F)c1Cl (stereo not shown) [Example 94, N-(2-{5-Amino-6-[1-(2,6-dichloro-3-fluoro-phenyl)-ethoxy]-pyrazin-2-yl}-phenyl)-methanesulfonamide]",3.79
13,"Cc1cc2cccc(-c3cnc(N)c(OC(C)c4c(Cl)ccc(F)c4Cl)n3)c2[nH]1 (stereo not shown) [Example 95, 3-[1-(2,6-Dichloro-3-fluoro-phenyl)-ethoxy]-5-(2-methyl-1H-indol-7-yl)-pyrazin-2-ylamine]",4.2
14,"CC(Oc1cc(-c2ccc(C(=O)N3CCC(N4CCCC4)CC3)cc2)cnc1N)c1c(Cl)ccc(Cl)c1F (stereo not shown) [Example 96, (4-{6-Amino-5-[1-(3,6-dichloro-2-fluoro-phenyl)-ethoxy]-pyridin-3-yl}-phenyl)-(4-pyrrolidin-1-yl-piperidin-1-yl)-methanone]",0.217
15,"CC(Oc1cc(-c2ccc(C(=O)N3C[C@@H](C)N[C@@H](C)C3)cc2)cnc1N)c1c(Cl)ccc(Cl)c1F (stereo partly shown) [Example 97, (4-{6-Amino-5-[1-(3,6-dichloro-2-fluoro-phenyl)-ethoxy]-pyridin-3-yl}-phenyl)-(3,5-dimethyl-piperazin-1-yl)-methanone]",0.324
16,"CC(Oc1cc(-c2ccc(CC(=O)N3CCN(C)CC3)cc2)cnc1N)c1c(Cl)ccc(F)c1Cl (stereo not shown) [Example 98, 2-(4-{6-Amino-5-[1-(2,6-dichloro-3-fluoro-phenyl)-ethoxy]-pyridin-3-yl}-phenyl)-1-(4-methyl-piperazin-1-yl)-ethanone]",0.068
17,"CC(Oc1cc(-c2ccc(CC(=O)N3CCC(N)C3)cc2)cnc1N)c1c(Cl)ccc(F)c1Cl (stereo not shown) [Example 99, 2-(4-{6-Amino-5-[1-(2,6-dichloro-3-fluoro-phenyl)-ethoxy]-pyridin-3-yl}-phenyl)-1-(3-amino-pyrrolidin-1-yl)-ethanone]",0.04
18,"CC(Oc1cc(-c2ccc(CC(=O)N3CCNCC3)cc2)cnc1N)c1c(Cl)ccc(F)c1Cl (stereo not shown) [Example 100, 2-(4-{6-Amino-5-[1-(2,6-dichloro-3-fluoro-phenyl)-ethoxy]-pyridin-3-yl}-phenyl)-1-piperazin-1-yl-ethanone]",0.037
19,"CC(Oc1cc(-c2ccc(CC(=O)N3CC4C(N)C4C3)cc2)cnc1N)c1c(Cl)ccc(F)c1Cl (stereo not shown) [Example 101, 1-(6-Amino-3-aza-bicyclo[3.1.0]hex-3-yl)-2-(4-{6-amino-5-[1-(2,6-dichloro-3-fluoro-phenyl)-ethoxy]-pyridin-3-yl}-phenyl)-ethanone]",0.039
20,"CC(Oc1cc(-c2ccc(NC(=O)C3CCNCC3)nc2)cnc1N)c1c(Cl)ccc(F)c1Cl (stereo not shown) [Example 102, Piperidine-4-carboxylic acid {6′-amino-5′-[1-(2,6-dichloro-3-fluoro-phenyl)-ethoxy]-[3,3′]bipyridinyl-6-yl}-amide]",0.164
21,"CC(Oc1cc(-c2ccc(F)c(C#N)c2)cnc1N)c1c(Cl)ccc(F)c1Cl (stereo not shown) [Example 103, 5-{6-amino-5-[1-(2,6-dichloro-3-fluorophenyl)ethoxy]pyridin-3-yl}-2-fluorobenzonitrile]",0.34
22,"C[C@@H](Oc1cc(-c2ccc(C(=O)N3CCNCC3)cc2)cnc1N)c1c(Cl)ccc(F)c1Cl [Example 104, 3-[(1R)-1-(2,6-dichloro-3-fluorophenyl)ethoxy]-5-[4-(piperazin-1-ylcarbonyl)phenyl] pyridin-2-amine]",0.01
23,"CC(Oc1cc(-c2ccc(OCCN3CCCC3)cc2)cnc1N)c1c(Cl)ccc(F)c1Cl (stereo not shown) [Example 105, 3-[1-(2,6-dichloro-3-fluorophenyl)ethoxy]-5-[4-(2-pyrrolidin-1-ylethoxy)phenyl] pyridin-2-amine]",0.044

# Same assay, conditions: compound at 1 μM
row,SMILES,inhibition at 1 µM [%]
1,"CCC(Oc1cc(-c2ccc(C(=O)N3CCC(N4CCCC4)CC3)cc2)cnc1N)c1cc(F)c(F)cc1F (stereo not shown) [Example 83, (4-{6-Amino-5-[1-(2,4,5-trifluoro-phenyl)-propoxy]-pyridin-3-yl}-phenyl)-(4-pyrrolidin-1-yl-piperidin-1-yl)-methanone]",11
2,"CC(Oc1cc(-c2ccc(C(=O)N3CCC(N4CCCC4)CC3)cc2)cnc1N)c1cccc(C(=O)NCCc2cccc(O)c2)c1 (stereo not shown) [Example 87, 3-(1-{2-Amino-5-[4-(4-pyrrolidin-1-yl-piperidine-1-carbonyl)-phenyl]-pyridin-3-yloxy}-ethyl)-N-[2-(3-hydroxy-phenyl)-ethyl]-benzamide]",20
